Numbering of substitutions follows the chain as printed. Structures can show the parent of a compound that is named as a salt. Where two headings read alike, the source gives them in different places.
Key:
human K2P18.1 = biological target: T1, human K2P18.1 (Homo sapiens, UniProt Q7Z418); experiment: Thallium-flux assay, HEK293 cells transfected with human K2P18.1; type: cell-based; details: for K2P18.1 Minimum Activity: fitted minimum, fixed at 0 where indicated
T1 sequence (Q7Z418 1-384): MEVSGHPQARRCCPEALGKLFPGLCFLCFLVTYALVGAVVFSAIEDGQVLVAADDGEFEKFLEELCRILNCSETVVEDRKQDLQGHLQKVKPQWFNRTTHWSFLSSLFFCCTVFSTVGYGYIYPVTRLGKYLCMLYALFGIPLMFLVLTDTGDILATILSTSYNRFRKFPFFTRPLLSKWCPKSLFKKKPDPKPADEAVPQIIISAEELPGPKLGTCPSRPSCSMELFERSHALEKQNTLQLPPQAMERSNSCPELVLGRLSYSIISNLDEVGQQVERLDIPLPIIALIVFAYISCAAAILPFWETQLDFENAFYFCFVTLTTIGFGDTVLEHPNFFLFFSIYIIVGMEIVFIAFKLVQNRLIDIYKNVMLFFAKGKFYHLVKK

K2P9.1 = K2P9.1 (Homo sapiens, UniProt Q9NPC2); experiment: Thallium-flux counter assay, tetracycline induced HEK293-K2P9.1 cells; type: cell-based; details: for K2P9.1 Maximum Activity: dash = lack of compound activity
[1] = biological target: T2, wild type K2P18.1 (wtK2P18.1) (Homo sapiens, UniProt Q7Z418); experiment: Whole-cell patch clamp, HEK293-wtK2P18.1; type: cell-based; details: read-out: inhibition of wtK2P18.1 current
T2 sequence (Q7Z418 1-384): T1 sequence (Q7Z418 1-384)

[2] = system: F156A/F364A double mutant mouse K2P18.1; details: 1 mM; ref Kim et al., 2013; cited from earlier work
mouse K2P18.1 = details: 1 mM; ref Kim et al., 2013; cited from earlier work
[3] = biological target: T3, F145A/F352A double mutant K2P18.1 (mutK2P18.1) (Homo sapiens, UniProt Q7Z418, F145A/F352A); experiment: Thallium-flux assay, F145A/F352A double mutant K2P18.1 in HEK293 cells; type: cell-based
T3 sequence (Q7Z418 1-384 F145A/F352A): T1 sequence (Q7Z418 1-384) with F145A, F352A

[4] = biological target: T3, F145A/F352A double mutant K2P18.1 (mutK2P18.1); experiment: Whole-cell patch clamp, HEK293-mutK2P18.1; details: read-out: inhibition of mutK2P18.1 current
[5] = read-out: K2P9.1 IC50, validation assay, Tl+ flux, HEK293-K2P9.1, highest 30 μM
[6] = validation assay, Tl+ flux, activators

Sequence of K2P9.1 (Q9NPC2 whole entry): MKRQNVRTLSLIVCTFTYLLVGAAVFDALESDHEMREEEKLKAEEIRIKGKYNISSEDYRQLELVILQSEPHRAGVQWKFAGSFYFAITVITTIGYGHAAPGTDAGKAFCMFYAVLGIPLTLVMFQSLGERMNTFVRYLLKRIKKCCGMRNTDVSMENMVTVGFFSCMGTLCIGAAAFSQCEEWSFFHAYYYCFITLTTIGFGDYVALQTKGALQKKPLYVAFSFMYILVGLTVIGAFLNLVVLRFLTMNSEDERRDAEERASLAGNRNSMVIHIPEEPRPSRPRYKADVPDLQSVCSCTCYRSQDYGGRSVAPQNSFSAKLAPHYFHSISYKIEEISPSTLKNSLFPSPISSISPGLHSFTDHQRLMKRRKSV

Row | Compound | K2P18.1 Minimum Activity (human K2P18.1; validation assay, Tl+ flux) | IC50 (K2P9.1; [5]) | IC50 (K2P9.1) | K2P9.1 Maximum Activity (K2P9.1; [6]) | other results
1 | COc1cccc(-c2cc(=O)c3ccccc3o2)c1N [PD98,059] | 22.9 (± 23.3) % | > 30 µM |  |  | 
2 | CCCC(=O)NCCc1c2n(c3ccc(OC)cc13)CCCc1ccccc1-2 [K185] | 0 (fixed) % | > 30 µM |  |  | 
3 | COc1cc([C@@H]2c3cc4c(cc3[C@H](O)[C@H]3COC(=O)[C@H]23)OCO4)cc(OC)c1OC [Podophyllotoxin] | 0 (fixed) % |  | > 30 µM |  | IC50 (human K2P18.1): 7.32 µM
4 | COc1cc2c(cc1OC)-c1c/c(=N\c3c(C)cc(C)cc3C)n(C)c(=O)n1CC2 [Trequinsin hydrochloride] | 3.90 (± 20.2) % |  | > 30 µM |  | 
5 | Clc1ccc(C(c2ccc(Cl)cc2)n2cc[n+](CC(OCc3ccc(Cl)cc3Cl)c3ccc(Cl)cc3Cl)c2)cc1 (centres unmarked) [Calmidazolium chloride] | 0 (fixed) % |  | > 30 µM |  | 
6 | CS(=O)(=O)O.Cc1c(C(=O)c2cccc3ccccc23)c2cccc3c2n1[C@H](CN1CCOCC1)CO3 [(R)-(+)-WIN 55,212–2 mesylate] | 25.6 (± 28.3) % | > 30 µM |  |  | 
7 | OCc1ccc(-c2nn(Cc3ccccc3)c3ccccc23)o1 [YC-1] | 0 (fixed) % | > 30 µM |  |  | 
8 | CCCCCCCCCCCCCC(=O)O[C@@H]1[C@@H](C)[C@@]2(O)[C@@H](C=C(CO)C[C@]3(O)C(=O)C(C)=C[C@@H]23)[C@@H]2C(C)(C)[C@]12OC(C)=O [Phorbol 12-myristate 13-acetate] |  |  |  | - | EC50 (human K2P18.1): 0.03 µM; K2P18.1 Maximum Activity (human K2P18.1): 130 (± 2.01) %; EC50 (K2P9.1): > 30 µM
9 | Cc1c(CC(C)(C)C(=O)O)n(Cc2ccc(Cl)cc2)c2ccc(F)cc12 [L-655,240] | 0 (fixed) % | > 30 µM |  |  | 
10 | C[N+](C)(C)CCOC(N)=O [Carbachol, carbamoylcholine chloride, (2-Hydroxyethyl)trimethyl-ammonium chloride carbamate] |  |  |  | - | EC50 (human K2P18.1): 1.59 µM; K2P18.1 Maximum Activity (human K2P18.1; [6]): 190 (± 9.96) %; EC50 (K2P9.1): > 30 µM
11 | CCN(CC)CC(=O)Nc1c(C)cccc1C [lidocaine, 2-Diethylamino-N-(2,6-dimethylphenyl)acetamide] |  |  |  |  | inhibition at 1000 µM [1]: 65.2 ± 10.4%; IC50 (human K2P18.1; IC50 for K2P18.1 inhibition without carbachol, Tl+ flux, absence of carbachol): 3650 ± 380 µM; inhibition of F156A/F364A double mutant mouse K2P18.1 [2]: 20 ± 15%; inhibition of wild type mouse K2P18.1 (mouse K2P18.1): 83 ± 5%; IC50 [3]: 11600 ± 7100 µM; inhibition at 1000 µM [4]: 18.2 ± 5.8%
12 | COC(=O)C1=CCCN(C)C1 [Arecoline hydrobromide] |  |  |  | - | EC50 (human K2P18.1): 2.7 µM; K2P18.1 Maximum Activity (human K2P18.1; [6]): 155 (± 10.8) %; EC50 (K2P9.1): > 30 µM
13 | O=C(CCCN1CCC2(CC1)C(=O)NCN2c1ccccc1)c1ccc(F)cc1 [Spiperone Hydrochloride] |  |  |  | - | EC50 (human K2P18.1): 3.02 µM; K2P18.1 Maximum Activity (human K2P18.1; [6]): 161 (± 4.90) %; EC50 (K2P9.1): > 30 µM
14 | CC[C@H](C)C(=O)O[C@H]1CCC=C2C=C[C@H](C)[C@H](CC[C@@H]3C[C@@H](O)CC(=O)O3)[C@H]21 [Mevastatin] | 13.7 (± 7.6) % |  | > 30 µM |  | 
15 | Cn1c(=O)c2c(nc(C=Cc3cccc(Cl)c3)n2C)n(C)c1=O [8-(3-Chlorostyryl)caffeine] | 0 (fixed) % |  | > 30 µM |  | 
16 | CC(=O)OC(C)C[N+](C)(C)C.[Cl-] (stereo not drawn) [Acetyl-beta-methylcholine chloride] |  |  |  | - | EC50 (human K2P18.1; read-out: K2P18.1 EC50, validation assay, Tl+ flux, activators, highest 30 μM): 0.65 µM; K2P18.1 Maximum Activity (human K2P18.1; [6]): 184 (± 2.38) %; EC50 (K2P9.1; read-out: K2P9.1 EC50, validation assay, Tl+ flux, activators, highest 30 μM): > 30 µM

Reference: paper PMC4222048 (European journal of pharmacology, 2014)
